Source: patent US8710045B2, “Agents for preventing and treating disorders involving modulation of the ryanodine receptors” (The Trustees of Columbia University in the City of New York, priority 2004, dated 2014)
Where “and” joins values, the source holds several entries; their conditions need not be identical. Equal values may be shown once. One block for each compound: values may come before it.

Columns and labels:
PKA-phosphorylated RyR2 = biological target: T1, PKA-phosphorylated RyR2 (Homo sapiens, UniProt Q92736); assay: FKBP12.6 rebinding assay: FKBP12.6 binding to PKA-phosphorylated RyR2 in cardiac SR; conditions: compound 0.5-1000 nM; Michaelis-Menten curve fitting
T1 construct: from tissue
Method: Samples are centrifuged at 95,000 g for 10 min and the pellets are washed three times in 0.2 ml imidazole buffer. The final pellets are pooled and resuspended in imidazole buffer (final concentration≈10 μg/μl). […] Samples then are centrifuged at 100,000 g for 10 minutes and pellets washed 3 times with imidizol buffer. […] Immunoblots are developed using an anti-FKBP antibody (1:3,000 dilution). […] The intracellular solution contains (in mM): CsCl, 60; CaCl2, 1; EGTA, 11; MgCl2, 1; K2ATP, 5; HEPES, 10; aspartic acid, 50; pH 7.4 (CsOH). Under these conditions, it is expected that the measured current was carried by Ba^2+ primarily through L-type calcium channels which is referred to as ICa,L. Drugs are applied by a local solution changer and reach the cell membrane within 1 s.
The FKBP12.6 rebinding assay described above is used to determine the amount of FKBP12.6 binding to PKA-phosphorylated RyR2 at various concentrations (0.5-1000 nM) of the compounds shown. EC50 values are calculated using Michaelis-Menten curve fitting.
The EC50 values are calculated using Michaelis-Menten curve fitting.

hERG current = hERG current (Homo sapiens, UniProt Q12809); assay: hERG current, PatchXpress 7000A automatic parallel patch clamp in hERG-transfected HEK 293 cells (Example 6); conditions: for Individual Data (% Inhibition): single cell; for hERG current inhibition at the highest concentration tested: highest concentration tested (10 μM)
Method: (§1) HEK293 cells were transfected with a plasmid containing the hERG cDNA and a neomycin resistance gene. Stable transfectants were selected by culturing the cells in the presence of G418. The selection pressure was maintained by continued culture in the presence of G418. […] Cells for use in electrophysiology were cultured in 35 mm dishes.
(§2) Onset and steady state block of hERG current was measured using a pulse pattern with fixed amplitudes (conditioning prepulse: +20 mV for 2 seconds; test pulse: −50 mV for 2 seconds) repeated at 10 second intervals, from a holding potential of −80 mV. Peak tail current was measured during the 2 second step to −50 mV. A steady state was maintained for at least 30 seconds before applying the test compound or the positive control. Peak tail current was monitored until a new steady state was achieved. Test compound concentrations were applied cumulatively in ascending order without washout between applications.
(§3) Data acquisition and analysis was performed using the suite of pCLAMP (Vre. 8.2) programs (Axon Instruments, Union City, Calif.). Steady state was defined by the limiting constant rate of change with time (linear time dependence). The steady state before and after application of the test or control compounds was used to calculate the percentage of current inhibited at each concentration. […] Nonlinear squares fits were solved with the Solver add-in for Excel 2000 (Microsoft, Redmond, Wash.).
(§4) Multiple compounds of the invention were tested for their effects on hERG currents. The compounds tested were: ARM036-Na, ARM047, ARM048, ARM050, ARM057, ARM064, ARM074, ARM075, ARM076, ARM077, ARM101, ARM102, ARM103, ARM104, ARM106, ARM107 and ARM26. […] Electrophysiological recordings were made using the PatchXpress 7000 A (Molecular Devices) automatic parallel patch clamp system. […] The duration of exposure to each test concentration was 5 minutes.

hERG = hERG (Homo sapiens, UniProt Q12809); assay: as above; conditions: human, HEK 293 cells stably transfected with hERG cDNA
Method: as §1, §2, §3, §4

[1] = Individual Data (% Inhibition), single cell

hERG current, sequence (Q12809 whole entry): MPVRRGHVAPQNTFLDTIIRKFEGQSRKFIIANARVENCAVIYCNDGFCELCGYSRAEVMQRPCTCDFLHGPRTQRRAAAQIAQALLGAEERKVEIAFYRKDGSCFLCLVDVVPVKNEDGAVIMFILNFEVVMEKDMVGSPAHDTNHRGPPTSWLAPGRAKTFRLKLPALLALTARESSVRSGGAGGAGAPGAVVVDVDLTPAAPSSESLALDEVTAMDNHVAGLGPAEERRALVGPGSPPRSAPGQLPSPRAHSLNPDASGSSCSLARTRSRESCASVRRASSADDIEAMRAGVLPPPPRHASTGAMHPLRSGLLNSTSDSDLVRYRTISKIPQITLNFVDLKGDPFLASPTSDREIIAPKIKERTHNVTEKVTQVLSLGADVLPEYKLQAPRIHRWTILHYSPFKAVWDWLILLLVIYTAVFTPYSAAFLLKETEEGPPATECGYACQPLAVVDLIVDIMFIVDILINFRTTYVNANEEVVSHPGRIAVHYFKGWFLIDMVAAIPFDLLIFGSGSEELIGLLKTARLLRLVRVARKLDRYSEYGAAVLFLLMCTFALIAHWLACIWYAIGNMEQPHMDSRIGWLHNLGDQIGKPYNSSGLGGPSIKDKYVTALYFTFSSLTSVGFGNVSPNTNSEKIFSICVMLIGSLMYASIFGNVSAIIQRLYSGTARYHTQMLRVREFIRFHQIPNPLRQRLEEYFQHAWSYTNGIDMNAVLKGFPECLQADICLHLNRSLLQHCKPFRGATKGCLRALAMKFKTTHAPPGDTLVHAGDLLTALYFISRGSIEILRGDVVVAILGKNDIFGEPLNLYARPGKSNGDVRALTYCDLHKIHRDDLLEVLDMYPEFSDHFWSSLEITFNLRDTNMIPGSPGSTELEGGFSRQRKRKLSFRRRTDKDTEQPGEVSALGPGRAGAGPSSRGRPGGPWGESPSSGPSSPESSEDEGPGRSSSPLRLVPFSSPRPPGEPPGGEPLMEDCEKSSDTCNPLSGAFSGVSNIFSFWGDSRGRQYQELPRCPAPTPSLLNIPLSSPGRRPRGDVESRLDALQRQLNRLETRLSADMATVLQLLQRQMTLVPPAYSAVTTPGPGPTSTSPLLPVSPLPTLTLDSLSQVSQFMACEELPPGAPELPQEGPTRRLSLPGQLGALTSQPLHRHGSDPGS
hERG, sequence (Q12809 whole entry): as above

Structure (SMILES): COc1ccc2c(c1)CN(C(=O)N1CCN(Cc3ccc4c(c3)OCO4)CC1)CCS2 [S47]
EC50 (PKA-phosphorylated RyR2): 20 nM
IC50 (hERG current): 2500 nM
Mean % hERG Inhibition (hERG current; 0.01 μM): 2.7%
Individual Data (% Inhibition) (hERG current; 0.01 μM, listed as ARM047, 0.01 µM): 1.7% and 3.7%
Mean % hERG Inhibition (hERG current; 0.1 μM): 9.7%
Individual Data (% Inhibition) (hERG current; 0.1 μM, listed as ARM047, 0.1 µM): 6.5% and 12.9%
Mean % hERG Inhibition (hERG current; 1 μM): 29.6%
Individual Data (% Inhibition) (hERG current; 1 μM, listed as ARM047, 1 µM): 30.8% and 20.4% and 37.5%
Mean % hERG Inhibition (hERG current; 10 μM): 78.0%
Individual Data (% Inhibition) (hERG current; 10 μM, listed as ARM047, 10 µM): 82.1% and 75.9%

Structure (SMILES): COc1ccc2c(c1)CN(C(=O)N1CCCCC1)CCS2 [S50]
EC50 (PKA-phosphorylated RyR2): 40 nM
Mean % hERG Inhibition (hERG current; 0.01 μM): 1.8%
Individual Data (% Inhibition) (hERG current; 0.01 μM, listed as ARM050, 0.01 µM): 1.1% and 2.4%
Mean % hERG Inhibition (hERG current; 0.1 μM): 3.7%
Individual Data (% Inhibition) (hERG current; 0.1 μM, listed as ARM050, 0.1 µM): 2.7% and 4.7%
Mean % hERG Inhibition (hERG current; 1 μM): 6.1%
Individual Data (% Inhibition) (hERG current; 1 μM, listed as ARM050, 1 µM): 7.1% and 5.1%
Mean % hERG Inhibition (hERG current; 10 μM): 24.2%
Individual Data (% Inhibition) (hERG current; 10 μM, listed as ARM050, 10 µM): 27.0% and 21.3%
hERG current inhibition at the highest concentration tested (hERG current): less than 50%

Structure (SMILES): COc1ccc2c(c1)CN(C(=O)NO)CCS2 [S51]
EC50 (PKA-phosphorylated RyR2): 175 nM

Structure (SMILES): COc1ccc2c(c1)CN(C(=O)NCc1ccc3c(c1)CCO3)CCS2 [S52]
EC50 (PKA-phosphorylated RyR2): 143 nM

Structure (SMILES): COc1ccc2c(c1)CN(C(=O)N1CCN(c3ccccc3)CC1)CCS2 [S53]
EC50 (PKA-phosphorylated RyR2): 200 nM

Structure (SMILES): COc1ccc2c(c1)CN(C(=O)CCN1CCCCC1c1nnc(Cc3ccccc3)o1)CCS2 (stereo not shown) [S55]
EC50 (PKA-phosphorylated RyR2): 111 nM

Structure (SMILES): COC(=O)C(=O)N1CCSc2ccc(OC)cc2C1 [S57]
EC50 (PKA-phosphorylated RyR2): 73 nM
Mean % hERG Inhibition (hERG current; 0.01 μM): 0.2%
Individual Data (% Inhibition) (hERG current; 0.01 μM, listed as ARM057, 0.01 µM): 0.3% and 0.0%
Mean % hERG Inhibition (hERG current; 0.1 μM): 7.3%
Individual Data (% Inhibition) (hERG current; 0.1 μM, listed as ARM057, 0.1 µM): 4.1% and 10.4%
Mean % hERG Inhibition (hERG current; 1 μM): 2.7%
Individual Data (% Inhibition) (hERG current; 1 μM, listed as ARM057, 1 µM): 5.3% and 0.1%
Mean % hERG Inhibition (hERG current; 10 μM): 13.6%
Individual Data (% Inhibition) (hERG current; 10 μM, listed as ARM057, 10 µM): 18.3% and 8.8%
hERG current inhibition at the highest concentration tested (hERG current): less than 50%

Structure (SMILES): CCN(CC)C(=O)C(=O)N1CCSc2ccc(OC)cc2C1 [S59]
EC50 (PKA-phosphorylated RyR2): 102 nM

Structure (SMILES): COc1ccc2c(c1)CN(C(=O)NCCc1ccc(O)c(O)c1)CCS2 [S66]
EC50 (PKA-phosphorylated RyR2): 110 nM

Structure (SMILES): O=C(NO)N1CCSc2ccccc2C1 [S74]
EC50 (PKA-phosphorylated RyR2): 220 nM
Mean % hERG Inhibition (hERG current; 0.01 μM): 1.9%
Individual Data (% Inhibition) (hERG current; 0.01 μM, listed as ARM074, 0.01 µM): 0.8% and 3.0%
Mean % hERG Inhibition (hERG current; 0.1 μM): 4.8%
Individual Data (% Inhibition) (hERG current; 0.1 μM, listed as ARM074, 0.1 µM): 5.9% and 3.7%
Mean % hERG Inhibition (hERG current; 1 μM): 1.3%
Individual Data (% Inhibition) (hERG current; 1 μM, listed as ARM074, 1 µM): 0.2% and 2.4% and 5.6%
Mean % hERG Inhibition (hERG current; 10 μM): 9.5%
Individual Data (% Inhibition) (hERG current; 10 μM, listed as ARM074, 10 µM): 9.3% and 9.6% and 14.0%

Structure (SMILES): O=C(N1CCNCC1)N1CCSc2ccccc2C1 [S103]
inhibition at 5 min, 0.1 µM (hERG; [1]): 4.2%
inhibition at 5 min, 1 µM (hERG; [1]): 5%
inhibition at 5 min, 10 µM (hERG; Individual Data (% Inhibition), 10 μM, single cell): 28.4%
inhibition at 5 min, 0.01 µM (hERG; Mean % hERG Inhibition, 0.01 μM): 6.8%
inhibition at 5 min, 0.1 µM (hERG; Mean % hERG Inhibition): 3.3%
inhibition at 5 min, 1 µM (hERG; Mean % hERG Inhibition): 7.3%
inhibition at 5 min, 10 µM (hERG; Mean % hERG Inhibition, 10 μM): 29.2%
inhibition at 5 min, 10 µM (hERG; hERG current inhibition at the highest concentration tested, highest concentration tested (10 μM)): < 50%
Individual Data (% Inhibition) (hERG current; 0.01 μM, listed as ARM103, 0.01 µM): 12.1% and 1.5%
Individual Data (% Inhibition) (hERG current; 0.1 μM, listed as ARM103, 0.1 µM): 2.4%
Individual Data (% Inhibition) (hERG current; 1 μM, listed as ARM103, 1 µM): 9.6%
Individual Data (% Inhibition) (hERG current; 10 μM, listed as ARM103, 10 µM): 29.9%

The remaining compounds from weak to strong by EC50 (PKA-phosphorylated RyR2), led by results:

EC50 (PKA-phosphorylated RyR2): ~100 nM
Structure (SMILES): c1ccc2c(c1)CNCCS2 [S68]

EC50 (PKA-phosphorylated RyR2): 95 nM
Structure (SMILES): COc1ccc2c(c1)CN(C(=O)CCN1CCCC[C@H]1c1nnc(Cc3ccccc3)o1)CCS2 [S56]

EC50 (PKA-phosphorylated RyR2): 95 nM
Structure (SMILES): COc1ccc2c(c1)CN(C(=O)CCN1CCC(Cc3ccc(N)cc3N)CC1)CCS2 [S61]

EC50 (PKA-phosphorylated RyR2): 89 nM
Structure (SMILES): COc1ccc2c(c1)CN(C(=O)NCCc1cnc[nH]1)CCS2 [S67]

EC50 (PKA-phosphorylated RyR2): 81 nM
Structure (SMILES): COc1ccc2c(c1)CN(C(=O)NCc1ccccc1)CCS2 [S49]

EC50 (PKA-phosphorylated RyR2): 77 nM
Structure (SMILES): COc1ccc2c(c1)CN(S(=O)(=O)Nc1cccnc1)CCS2 [S54]

EC50 (PKA-phosphorylated RyR2): 68 nM
Structure (SMILES): COc1ccc2c(c1)CN(C(=O)CCN1CCC(Cc3ccc(N)cc3)CC1)CCS2 [S60]

EC50 (PKA-phosphorylated RyR2): 55 nM
Structure (SMILES): COc1ccc2c(c1)CN(C(=O)CCN1CCCCC1)CCS2 [S58]

EC50 (PKA-phosphorylated RyR2): 52 nM
Structure (SMILES): COc1ccc2c(c1)CN(C(=O)CCN1CCC(Cc3ccc(N=[N+]=[N-])cc3N=[N+]=[N-])CC1)CCS2 [S63]

EC50 (PKA-phosphorylated RyR2): 45 nM
Structure (SMILES): COc1ccc2c(c1)CN(C(=O)CCN1CCC(Cc3ccc(N=[N+]=[N-])cc3)CC1)CCS2 [S62]
